Source: PMC6453136 (Cellular signalling, 2018)

Key:
cAR1 [1] = target: T1, cAR1 (Dictyostelium discoideum, UniProt P13773)
T1 sequence (P13773 1-392): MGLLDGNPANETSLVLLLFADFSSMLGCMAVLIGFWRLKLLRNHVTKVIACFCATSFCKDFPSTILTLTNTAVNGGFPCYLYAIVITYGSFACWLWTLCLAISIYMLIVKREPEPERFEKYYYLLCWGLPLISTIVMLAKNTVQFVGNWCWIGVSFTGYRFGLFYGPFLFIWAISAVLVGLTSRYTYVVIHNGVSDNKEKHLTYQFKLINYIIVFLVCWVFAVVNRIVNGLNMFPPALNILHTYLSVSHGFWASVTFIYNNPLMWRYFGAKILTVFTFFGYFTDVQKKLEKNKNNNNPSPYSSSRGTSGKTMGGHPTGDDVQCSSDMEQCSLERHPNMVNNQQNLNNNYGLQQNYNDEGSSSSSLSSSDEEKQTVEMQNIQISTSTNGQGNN

[2] = system: cAMP-induced Gα2βγ subunit dissociation; experiment: BRET^2 assay after drug pretreatment; type: cell-based, Dictyostelium; details: for effect on interaction of Gα2 with βγ in resting cells (basal BRET^2 signal): 5 μM LatA or 50 μM Benomyl for 15 min
cAMP binding sites = details: 10 mM caffeine, whole cells; cited from earlier work
[3] = system: 5.5 h-differentiated wild-type cells; experiment: DIC and fluorescence confocal imaging of drug-treated cells; type: cell-based, Dictyostelium; details: 5 μM LatA or 50 μM Benomyl for 15 min; Lifeact-GFP / tubulin-GFP reporters
cAR1 [4] = target: T1, cAR1; experiment: cell-based

## Nc1ncnc2c1ncn2[C@@H]1O[C@@H]2COP(=O)(O)O[C@H]2[C@H]1O [cAMP, cyclic adenosine monophosphate]
cAR1 [1]; 10 μM cAMP
  time to steady state of BRET^2 loss after stimulation: approximately 20 s
cAR1 [1]; 10 μM cAMP, Gα2GFP^2/Rluc2Gβ/gα2^− cells
  decrease in total BRET^2 signal: 30–40
cAR1 [1]; 10 μM cAMP, Gα2GFP^2/Rluc2Gβ/gα2^− cells, 63 mBU before stimulation
  total BRET^2 signal after stimulation: 36 mBU
cAR1 [1]; 10 μM cAMP, carA^− and carA^−carC^− cells, undifferentiated and 5.5 h-differentiated
  G protein subunit dissociation in cells lacking cAR1: fails to induce considerable G protein subunit dissociation
cAR1 [1]; Gα2GFP^2/Rluc2Gβ/gα2^− cells
  cAMP concentration inducing the full G protein dissociation response: 500 nM
cAR1 [1]; carC^− cells
  G protein subunit dissociation in cells lacking only cAR3 (extent and potency): comparable to that in wild-type cells

## Cn1c(=O)c2c(ncn2C)n(C)c1=O [caffeine]
[2]; 5 mM caffeine, in parallel to untreated cells
  effect of caffeine on potency of cAMP-induced Gα2βγ subunit dissociation: significantly increased potency
cAMP binding sites
  effect on cAMP binding sites: conversion of most binding sites to the low affinity conformation

## CCCCNC(=O)n1c(NC(=O)OC)nc2ccccc21 [Benomyl]
[2]
  effect on interaction of Gα2 with βγ in resting cells (basal BRET^2 signal): did not affect
[3]
  effect on cell morphology: loss of morphological cell polarity

## C/C1=C/C(=O)O[C@@H]2C[C@@H](CC[C@H](C)/C=C\C=C\CC1)O[C@@](O)([C@@H]1CSC(=O)N1)C2 [LatA, Latrunculin A]
[2]
  effect on interaction of Gα2 with βγ in resting cells (basal BRET^2 signal): did not affect
[3]
  effect on cell morphology: loss of morphological cell polarity

## Nc1ncnc2c1ncn2[C@H]1C[C@H](O)[C@@H](COP(=O)(O)O)O1 [2’-dcAMP, 2’-deoxyadenosine-5’-monophosphate]
cAR1 [4]
  EC50: ~17 nM
